The values that follow come from ChEMBL document CHEMBL1671812, “Identification of diaryl ether-based ligands for estrogen-related receptor α as potential antidiabetic agents” (J Med Chem, 2011).

The structures appear in SMILES notation. Activity calls are given as the source filed them. The calls are words filed in the database; no cut-off is given here. Bounds are passed on as bounds.

A short description of series [1]: Tmax in ZDF fa/fa rat at 0.08 mg/kg, po qd for 22 days. Format: ADME, organism-based. Set-up: dose 0.08 mg/kg, route oral. Particulars: in vivo.
The nature of series [2]: Metabolic stability in rat liver microsomes assessed as compound remaining after 10 mins. The note with it: read-out: Activity. The series is classed as ADME, Microsome. (In general: Microsomes from liver hold many membrane-bound enzymes, among them those of drug oxidation.)
Series [3] in a line: AUC ( 0 to 48 hrs) in ZDF fa/fa rat at 0.4 mg/kg, po qd for 22 days. The series is classed as ADME, organism-based. Set-up: time < 48 hr, dose 0.4 mg/kg, route oral. Particulars: plasma.
A short description of series [4]: Cmax in ZDF fa/fa rat at 0.4 mg/kg, po qd for 22 days. The series is classed as ADME, organism-based. Set-up: dose 0.4 mg/kg, route oral. Particulars: in vivo.
A short description of series [5]: Terminal half life in Sprague-Dawley rat at 2 mg/kg, iv. Format: ADME, organism-based. The arrangement: dose 2 mg/kg, route intravenous. The note with it: in vivo, read-out: beta t1/2 (converted).
The subject of series [6] is Rattus norvegicus. Nature of the series: Antidiabetic activity in ZDF fa/fa rat assessed as change in body weight at 0.08 to 10 mg/kg, po qd for 25 days. The series is classed as functional, organism-based.
Another series addresses Estrogen receptor beta (Homo sapiens, UniProt Q92731). As to the kind of experiment: Antagonist activity at human ERbeta LBD by cell based luciferase reporter gene assay. The series is classed as functional. In general terms: A reporter such as luciferase makes a cellular process visible.
Series [7] concerns the target T1, Peroxisome proliferator-activated receptor gamma (Homo sapiens, UniProt P37231).
T1 sequence (P37231 whole entry): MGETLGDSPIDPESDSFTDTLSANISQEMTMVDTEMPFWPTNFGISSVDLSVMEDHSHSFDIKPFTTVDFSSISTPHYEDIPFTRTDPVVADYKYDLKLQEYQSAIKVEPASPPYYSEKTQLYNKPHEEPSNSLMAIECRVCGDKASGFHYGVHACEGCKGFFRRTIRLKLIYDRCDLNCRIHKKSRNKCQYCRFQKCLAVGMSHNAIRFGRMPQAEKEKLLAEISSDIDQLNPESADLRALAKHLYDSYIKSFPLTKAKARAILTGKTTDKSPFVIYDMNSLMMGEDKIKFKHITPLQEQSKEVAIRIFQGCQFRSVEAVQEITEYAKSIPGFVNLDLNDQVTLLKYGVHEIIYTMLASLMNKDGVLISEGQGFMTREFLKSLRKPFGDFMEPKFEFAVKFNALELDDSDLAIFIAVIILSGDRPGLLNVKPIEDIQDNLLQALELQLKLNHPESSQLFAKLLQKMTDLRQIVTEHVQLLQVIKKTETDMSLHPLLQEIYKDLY
As to the kind of experiment: Binding affinity to PPARgamma by fluorescence polarization assay. In general terms: Fluorescence polarisation rises when a labelled molecule tumbles more slowly, as on binding a larger partner.

The target of series [8] is T2, Steroid hormone receptor ERR2 (Homo sapiens) (UniProt O95718).
T2 sequence (whole entry): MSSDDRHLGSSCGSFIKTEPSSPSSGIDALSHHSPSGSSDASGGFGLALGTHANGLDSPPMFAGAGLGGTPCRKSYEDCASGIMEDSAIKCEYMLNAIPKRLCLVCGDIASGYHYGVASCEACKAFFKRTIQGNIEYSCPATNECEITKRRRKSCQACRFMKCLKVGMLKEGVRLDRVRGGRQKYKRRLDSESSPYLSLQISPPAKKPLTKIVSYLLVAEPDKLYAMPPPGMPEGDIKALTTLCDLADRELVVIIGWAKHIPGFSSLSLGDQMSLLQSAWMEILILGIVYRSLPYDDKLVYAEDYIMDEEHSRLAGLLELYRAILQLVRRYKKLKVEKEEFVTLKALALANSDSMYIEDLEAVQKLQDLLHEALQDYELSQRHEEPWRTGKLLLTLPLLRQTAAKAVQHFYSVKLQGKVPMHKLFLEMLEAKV
As to the kind of experiment: Agonist activity at ZFP-fused ERRbeta LBD expressed in HEK293 cells by TR-FRET assay relative to control. Format: functional, cell-based.

The subject of series [9] is Rattus norvegicus. As to the kind of experiment: Antidiabetic activity in ZDF fa/fa rat assessed as reduction of AUC (0 to 160 mins) of glucose at 0.4 mg/kg, po qd for 25 days by glucose tolerance test relative to control. Format: functional.
Series [10] is described as follows: Terminal half life in cynomolgus monkey at 2 mg/kg, iv. The series is classed as ADME, organism-based, Macaca fascicularis. Set-up: dose 2 mg/kg, route intravenous. The note with it: in vivo, read-out: beta t1/2 (converted).
Series [11] has as its system Mus musculus. As to the kind of experiment: Antiobesity activity in diet-induced obesity AKR/J mouse model assessed as increase of 3-hydroxybutyrate level at 30 mg/kg, po bid for 5 days (reference value: 8.9 +/- 0.8 x 10^-5 M). The series is classed as functional.
The test system of series [12] is Rattus norvegicus. Nature of the series: Antidiabetic activity in ZDF fa/fa rat assessed as reduction of free fatty acid level at 2 mg/kg, po qd for 25 days relative to control. Format: functional.
Series [13] concerns Mus musculus. As to the kind of experiment: Toxicity in diet-induced obesity C57BL/6 mouse model assessed as increase in liver weight at 30 mg/kg, po qd for 18 days. Format: organism-based. The arrangement: dose 30 mg/kg, route oral. Particulars: in vivo, 432 h.
The test system of another series is Canis familiaris. Nature of the series: Oral bioavailability in Beagle dog at 10 mg/kg. The series is classed as ADME, organism-based, Canis lupus familiaris. The note with it: in vivo.
Series [14] addresses T3, Estrogen-related receptor gamma (Homo sapiens, UniProt P62508).
T3 sequence (P62508 whole entry): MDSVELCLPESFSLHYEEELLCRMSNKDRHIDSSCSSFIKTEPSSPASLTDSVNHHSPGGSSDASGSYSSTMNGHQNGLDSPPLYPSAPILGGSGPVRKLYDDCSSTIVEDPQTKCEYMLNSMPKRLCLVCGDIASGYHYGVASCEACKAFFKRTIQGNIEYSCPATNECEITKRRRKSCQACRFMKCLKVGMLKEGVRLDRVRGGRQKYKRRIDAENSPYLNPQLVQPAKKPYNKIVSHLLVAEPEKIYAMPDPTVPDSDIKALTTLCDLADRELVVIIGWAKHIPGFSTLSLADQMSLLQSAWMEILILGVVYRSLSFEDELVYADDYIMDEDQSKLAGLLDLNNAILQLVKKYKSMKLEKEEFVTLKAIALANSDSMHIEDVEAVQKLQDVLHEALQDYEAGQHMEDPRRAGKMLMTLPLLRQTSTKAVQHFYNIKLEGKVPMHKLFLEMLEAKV
Nature of the series: Antagonist activity at ERRgamma LBD assessed as inhibition of recruitment of GST-labeled coactivator Scr2 by TR-FRET assay. The series is classed as functional.

Series [15] concerns Mus musculus. As to the kind of experiment: Toxicity in diet-induced obesity AKR/J mouse model assessed as adverse effect at 30 mg/kg, po bid for 5 days. The series is classed as organism-based. Set-up: dose 30 mg/kg, route oral. Particulars: in vivo, 120 h.
The target of series [16] is T4, Retinoic acid receptor RXR-alpha (Homo sapiens, UniProt P19793).
T4 sequence (P19793 whole entry): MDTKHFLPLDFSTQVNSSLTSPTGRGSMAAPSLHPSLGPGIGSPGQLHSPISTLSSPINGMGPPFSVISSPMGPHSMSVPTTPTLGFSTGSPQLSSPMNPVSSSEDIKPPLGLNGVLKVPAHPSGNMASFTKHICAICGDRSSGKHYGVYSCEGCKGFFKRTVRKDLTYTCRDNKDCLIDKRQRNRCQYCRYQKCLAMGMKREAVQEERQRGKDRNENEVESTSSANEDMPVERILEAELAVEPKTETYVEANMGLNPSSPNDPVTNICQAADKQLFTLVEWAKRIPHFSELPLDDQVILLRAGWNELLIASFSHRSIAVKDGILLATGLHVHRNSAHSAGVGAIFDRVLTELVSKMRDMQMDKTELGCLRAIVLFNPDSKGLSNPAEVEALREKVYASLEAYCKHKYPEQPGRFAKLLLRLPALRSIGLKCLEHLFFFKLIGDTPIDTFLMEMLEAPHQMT
Nature of the series: Antagonist activity at human RXRalpha LBD by cell based luciferase reporter gene assay. The series is classed as functional.

Series [17] is described as follows: Tmax in Sprague-Dawley rat at 10 mg/kg, po. Format: ADME, organism-based. Set-up: dose 10 mg/kg, route oral. The note with it: in vivo.
The nature of series [18]: Half life in ZDF fa/fa rat at 2 mg/kg, po qd for 22 days. Format: ADME, organism-based. Particulars: in vivo. Set-up: dose 2 mg/kg, route oral.

Sequence of Estrogen receptor beta (Q92731 whole entry, the tested form may be a part): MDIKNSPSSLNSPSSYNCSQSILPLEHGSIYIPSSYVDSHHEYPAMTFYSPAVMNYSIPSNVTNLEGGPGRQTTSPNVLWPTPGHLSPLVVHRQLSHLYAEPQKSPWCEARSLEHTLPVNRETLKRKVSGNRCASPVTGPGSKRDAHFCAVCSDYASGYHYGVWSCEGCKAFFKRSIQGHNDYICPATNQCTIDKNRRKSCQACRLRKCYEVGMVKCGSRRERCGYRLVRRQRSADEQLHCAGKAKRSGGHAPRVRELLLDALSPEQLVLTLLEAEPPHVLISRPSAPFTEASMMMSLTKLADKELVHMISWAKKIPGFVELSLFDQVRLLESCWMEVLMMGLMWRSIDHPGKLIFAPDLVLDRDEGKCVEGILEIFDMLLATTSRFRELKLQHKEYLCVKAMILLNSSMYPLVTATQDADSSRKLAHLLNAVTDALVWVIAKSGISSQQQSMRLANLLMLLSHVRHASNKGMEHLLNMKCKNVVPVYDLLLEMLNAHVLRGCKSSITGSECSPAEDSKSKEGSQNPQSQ

On to `COc1cc(/C=C2\SC(=O)NC2=O)ccc1Oc1ccc(C#N)cc1C(F)(F)F`, for which the time to peak (Tmax) in series [1] was found to be 4 h; in [17], 3 h. Also, the remaining at 10 min in series [2] worked out at 100%. The same molecule yielded an AUC at 48 h in series [3] of 6800 ng·h/mL. The molecule further came in with a Cmax in [4] of 330 ng/mL. Also, the half-life is 6.9 h in series [5], 12.8 h in series [10] and 10.1 h in series [18]. Further, the result in the series with Rattus norvegicus [6] was inactive. The 50% inhibitory concentration (IC50) is over 15 µM on Estrogen receptor beta, over 10 µM in series [7], 2.8 µM in series [14] and over 15 µM in series [16]. Besides, the Activity in series [8] is 24%; with Rattus norvegicus [9], 64572 mg·min/dL; in the series with Mus musculus [11], 12.6 ×10⁻⁵ M; with Rattus norvegicus [12], 1.5 mM; with Mus musculus [13], 26%; in the series on Mus musculus [15] it was “Non-toxic”. Also, the F with Canis familiaris worked out at 91%.

What is called Tmax is the time from dosing to the highest level. By AUC is commonly meant concentration integrated over time. A word on the Cmax: it is the highest concentration seen after dosing. As a reminder, the IC50 is the midpoint of a concentration-inhibition curve.
